Test results taken from ChEMBL document CHEMBL1821627, “Medicinal chemistry as a conduit for the modulation of quorum sensing” (J Med Chem, 2010).
One block for each compound: values may come before it. Where a SMILES comes first, the peptide text is derived from it. Bridges are numbered along the chain shown (N, C = ends). [ ]: non-standard residue; d: D form. NMeF = CN[C@@H](Cc1ccccc1)C(=O)O; NMeS = CN[C@@H](CO)C(=O)O; Mpa = O=C(O)CCS

Tests used:
[1] = Inhibition of Staphylococcus aureus Quorum sensing system AgrC-II activation after 60 to 90 minutes by beta-lactamase reporter assay
[2] = Inhibition of Staphylococcus aureus Quorum sensing system AgrC-I activation after 60 to 90 minutes by beta-lactamase reporter assay
[3] = Inhibition of quorum sensing in Pseudomonas aeruginosa assessed as inhibition of LasR-dependent yellow fluorescent protein emission by luminescence assay
[4] = Inhibition of quorum sensing Salmonella Typhimurium by beta-galactosidase transcription assay in presence of 50 uM DPD; parameters: species or system Salmonella enterica subsp. enterica serovar Typhimurium
[5] = Inhibition of quorum sensing regulated bioluminescence in Vibrio harveyi
[6] = test system: Chromobacterium violaceum; test: In vivo inhibition of violacein production in Chromobacterium violaceum; format: functional, organism-based
[7] = biological target: T1, Autoinducer 1 sensor kinase/phosphatase LuxN (Vibrio harveyi, UniProt P0C5S6); test: Inhibition of LuxN-dependent bioluminescence in Vibrio harveyi
T1 sequence (P0C5S6 whole entry): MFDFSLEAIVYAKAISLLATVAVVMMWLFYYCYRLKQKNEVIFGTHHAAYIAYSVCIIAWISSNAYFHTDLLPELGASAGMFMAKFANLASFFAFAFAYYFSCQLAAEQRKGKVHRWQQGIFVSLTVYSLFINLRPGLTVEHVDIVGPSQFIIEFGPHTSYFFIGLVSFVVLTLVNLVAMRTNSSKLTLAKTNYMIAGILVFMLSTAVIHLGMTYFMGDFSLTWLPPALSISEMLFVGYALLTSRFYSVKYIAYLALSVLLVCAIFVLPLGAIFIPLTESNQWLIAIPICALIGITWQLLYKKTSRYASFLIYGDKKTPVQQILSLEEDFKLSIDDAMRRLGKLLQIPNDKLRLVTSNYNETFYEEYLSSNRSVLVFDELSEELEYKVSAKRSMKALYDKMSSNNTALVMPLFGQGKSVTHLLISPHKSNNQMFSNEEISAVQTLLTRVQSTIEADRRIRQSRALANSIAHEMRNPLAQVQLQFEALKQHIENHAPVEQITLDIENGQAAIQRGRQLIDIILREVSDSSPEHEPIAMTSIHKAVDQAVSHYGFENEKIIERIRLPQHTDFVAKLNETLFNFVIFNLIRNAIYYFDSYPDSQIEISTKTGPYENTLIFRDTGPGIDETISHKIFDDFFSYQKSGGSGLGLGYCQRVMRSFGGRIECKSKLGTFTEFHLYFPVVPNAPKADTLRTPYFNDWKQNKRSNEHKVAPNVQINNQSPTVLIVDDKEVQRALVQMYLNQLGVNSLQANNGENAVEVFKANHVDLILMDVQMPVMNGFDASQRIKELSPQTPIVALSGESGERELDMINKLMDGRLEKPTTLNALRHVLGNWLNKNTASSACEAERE

[8] = biological target: T2, Transcriptional activator protein LasR (Pseudomonas aeruginosa (strain ATCC 15692 / PAO1 / 1C / PRS 101 / LMG12228), UniProt P25084); test: Antagonist activity at Pseudomonas aeruginosa LasR receptor expressed in Escherichia coli in presence of 7.5 nM natural auto-inducer 3-oxo-C12-HSL; format: functional
T2 sequence (P25084 whole entry): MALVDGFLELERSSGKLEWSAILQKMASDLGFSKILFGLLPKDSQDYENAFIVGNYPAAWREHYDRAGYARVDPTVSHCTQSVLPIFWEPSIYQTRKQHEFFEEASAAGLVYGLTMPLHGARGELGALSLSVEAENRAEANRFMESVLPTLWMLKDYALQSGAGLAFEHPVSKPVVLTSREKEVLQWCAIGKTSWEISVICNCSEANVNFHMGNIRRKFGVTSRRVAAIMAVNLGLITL

[9] = biological target: T2, Transcriptional activator protein LasR; test: Antagonist activity at Pseudomonas aeruginosa LasR receptor assessed as inhibition of bioluminescence by reporter gene assay; format: functional
[10] = test system: Salmonella enterica subsp. enterica serovar Typhimurium; test: Ratio of compound IC50 to DPD IC50 for Salmonella Typhimurium quorum sensing system
[11] = biological target: T2, Transcriptional activator protein LasR; test: Agonist activity at Pseudomonas aeruginosa LasR cognate receptor expressed in Escherichia coli harboring pKDT17 assessed as activation of lasB expression by LacZ reporter gene assay; format: functional
[12] = biological target: T3, Transcriptional activator protein LuxR (Aliivibrio fischeri, UniProt P12746); test: Antagonist activity at Vibrio fischeri luxR receptor in presence of 5 uM 3-oxo-C6-HSL; format: functional
T3 sequence (P12746 whole entry): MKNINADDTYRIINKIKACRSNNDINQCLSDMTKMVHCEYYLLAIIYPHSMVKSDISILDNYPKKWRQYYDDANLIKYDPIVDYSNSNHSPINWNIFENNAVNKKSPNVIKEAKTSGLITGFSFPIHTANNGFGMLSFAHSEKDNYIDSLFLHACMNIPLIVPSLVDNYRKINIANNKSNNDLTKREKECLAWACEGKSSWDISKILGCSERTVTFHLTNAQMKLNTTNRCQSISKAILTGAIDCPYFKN

[13] = Induction of quorum sensing activity in Pseudomonas aeruginosa assessed as maximal induction of LasR-dependent yellow fluorescent protein emission by luminescence assay

IC50 ([1]; read-out: IC50): 47300 nM
IC50 ([2]; read-out: IC50): 1680 nM
Compound: CC(C)C[C@@H]1NC(=O)[C@H](CO)NC(=O)[C@H](CO)NC(=O)CCSC(=O)[C@H](Cc2ccccc2)NC1=O ([Mpa]SSLF; thioester 1-C)

IC50 [3]: 10000 nM
Compound: CCCCCCCCCNC(=O)CC(=O)c1ccccc1

IC50 [4]: > 50000 nM
Compound: O=C(CCc1ccccc1)C(=O)[C@@H](O)CO

IC50 [5]: 138000 nM
Compound: CCN(CC)C(=S)CS(=O)(=O)c1cccs1

IC50 [6]: 1200 nM
Compound: Cc1cc(Cl)ccc1OCCCC(=O)NC1CCSC1=O (configuration not stated)

Compound: CC(=O)N1CCc2ccc(S(=O)(=O)NC(CC(C)C)C(=O)NCc3ccc(Cl)cc3)cc21 (configuration not stated)
IC50 [7]: 2700 nM

IC50 [5]: 5000 nM
Compound: COC(=O)c1ccc(B(O)O)cc1

IC50 [5]: 35000 nM
Compound: NC(=S)CS(=O)(=O)c1cccs1

Compound: O=C(c1ccc(Cl)cc1)c1ccc(S(=O)(=O)c2ccc(Cl)cc2)cc1
IC50 [7]: 2600 nM

Compound: O=C(CCc1ccc(Br)cc1)N[C@H]1CCOC1=O
IC50 [8]: 340 nM

IC50 [5]: 4000 nM
Compound: O=C(c1ccccc1)c1ccc(O)c(O)c1O

Compound: O=C(CCCCCCCCN=C=S)CC(=O)N[C@H]1CCOC1=O
IC50 [9]: 300000 nM

IC50 [1]: Not Active
IC50 [2]: Not Active
Compound: CC(=O)N[C@H]1CSC(=O)[C@H](Cc2ccccc2)N(C)C(=O)[C@H](CC(C)C)NC(=O)[C@H](CO)NC(=O)[C@H](CO)NC1=O (Ac-CSSL[NMeF]; thioester 1-C)

Compound: CC(C)(c1ccccc1)c1ccc(OCC(=O)NC2CCCC2)cc1
IC50 [7]: 2400 nM

Ratio IC50 [10]: < 10
IC50 [4]: 5040 nM
Compound: CCCCC(=O)C(=O)[C@@H](O)CO

IC50 ([1]; read-out: IC50): 1050 nM
IC50 ([2]; read-out: IC50): 319 nM
Compound: CC(=O)N[C@H]1CSC(=O)[C@H](Cc2ccccc2)NC(=O)[C@H](CC(C)C)NC(=O)[C@H](CO)N(C)C(=O)[C@H](CO)NC1=O (Ac-CS[NMeS]LF; thioester 1-C)

Compound: CC(C)OC(=O)CSc1nc2ccccc2[nH]1
IC50 [7]: 62300 nM

IC50 [3]: 50000 nM
Compound: O=C(Nc1ccccc1NC(=O)c1cccc(Cl)c1)c1cccc(Cl)c1

Compound: CCCCCCCCCC(O)CC(=O)N[C@H]1CCOC1=O (some centres not stated)
EC50 [11]: 54 nM

Compound: O=C(Cc1ccc(I)cc1)N[C@H]1CCOC1=O
IC50 [8]: 1720 nM

IC50 ([1]; read-out: IC50): 194 nM
IC50 ([2]; read-out: IC50): 40 nM
Compound: CC(=O)N[C@H]1CSC(=O)[C@H](Cc2ccccc2)NC(=O)[C@H](CC(C)C)NC(=O)CNC(=O)[C@H](CO)NC1=O (Ac-CSGLF; thioester 1-C)

IC50 [9]: 100000 nM
Compound: O=C(CCCCCCCCCNC(=O)CBr)CC(=O)N[C@H]1CCOC1=O

IC50 [12]: 610 nM
Compound: O=C(Cc1ccc(C(F)(F)F)cc1)N[C@H]1CCOC1=O

IC50 [5]: 22000 nM
Compound: CCOC(=S)CS(=O)(=O)c1cccs1

IC50 [6]: 723 nM
Compound: O=C(CCCOc1ccc(Cl)cc1)NC1CCSC1=O (configuration not stated)

IC50 [5]: 6000 nM
Compound: N#Cc1ccc(B(O)O)cc1

IC50 [5]: > 400000 nM
Compound: NC(=O)CS(=O)(=O)c1cccs1

IC50 ([1]; read-out: IC50): 238 nM
IC50 ([2]; read-out: IC50): 77 nM
Compound: CC(=O)N[C@H]1CSC(=O)[C@H](Cc2ccccc2)NC(=O)[C@H](CC(C)C)NC(=O)CNC(=O)CNC1=O (Ac-CGGLF; thioester 1-C)

Ratio IC50 [10]: < 10
IC50 [4]: 5300 nM
Compound: CCCC(=O)C(=O)[C@@H](O)CO

IC50 [12]: 770 nM
Compound: CCCCCCCC(=O)N[C@H]1CCOC1=O

EC50 [13]: 14 nM
Compound: O=C(Oc1c(Br)cc(Br)cc1CNC(=O)c1ccccc1[N+](=O)[O-])c1ccccc1Cl

IC50 [5]: 4000 nM
Compound: OB(O)c1ccc(OCc2ccccc2)cc1

IC50 [5]: 35000 nM
Compound: NC(=S)CS(=O)(=O)c1ccccn1

IC50 ([1]; read-out: IC50): 7880 nM
IC50 ([2]; read-out: IC50): 639 nM
Compound: CC(=O)N[C@H]1CSC(=O)[C@H](Cc2ccccc2)NC(=O)[C@H](CC(C)C)NC(=O)[C@H](CO)NC(=O)[C@H](CO)N(C)C1=O (Ac-C[NMeS]SLF; thioester 1-C)
